Test results: publication PMC9971899, “Identification and structural analysis of a carbohydrate-binding module specific to alginate, a representative of a new family, CBM96” (The Journal of Biological Chemistry, 2022)
Values joined by “and” are separate entries in the source; they are usually repeats but may differ in a detail not shown here. Equal entries are not always repeated.

What was measured:
TM6-N4 [1] = experiment: Isothermal titration calorimetry of alginate and oligoalginate binding to TM6-N4; design: species or system Defluviitalea phaphyphila; details: ITC, 25 °C, pH 7.0; for TΔS: calculated from ΔG = ΔH-TΔS; for ΔG (binding free energy change): calculated from ΔG = −RTln Ka
Protocol: (§1) To characterize the binding of TM6-N4 to alginate, isothermal titration calorimetry (ITC) experiments were carried out at 25 °C and pH 7.0, with alginate and oligoalginate standards including G3, G4, G5, G6, G7, M3, M5, M6, and M7 as substrate and TM6-N4 as the enzyme. […] Nevertheless, G3 produced a profile of CBM–ligand interaction (Fig. 2A). It is thus likely that the binding sites of TM6-N4 required at least three uronic acid units to yield stable binding complexes. […] These discrepancies may reflect the fact that one alginate chain has accommodated several protein molecules and the fact of the thermodynamic instability of the long alginate chain.
(§2) Figure 2 Thermograms (upper panels) and binding isotherms with theoretical fits (lower panels) obtained for the binding. G3 (A), G4 (B), G5 (C), G6 (D), G7 (E), M3 (F), M5 (G), M6 (H), M7 (I), and alginate (J) to TM6-N4. The buffer used was 20 mM Tris–HCl buffer, pH 7.0. Protein concentration was 20 μM for TM6-N4.
(§3) The proteins were dialyzed extensively against buffer with 20 mM Tris–HCl (pH 7.0) without NaCl and adjusted concentration to 20 μM, and the oligosaccharide ligands (purity ≥95%; Qingdao BZ Oligo Biotech Co Ltd) or alginate ligands (viscosity >0.02 Pa·s, 1% alginate in H2O at 25 °C) were dissolved in the same buffer to minimize heats of dilution with a concentration of 200 μM. To avoid bubble formation, all the samples were degassed by centrifugation at 12,000 rpm/10 min. Calorimetric titration was performed with MicroCal PEAQ-ITC (Malvern Panalytical). During a titration experiment, the protein sample was stirred at a speed of 750 rpm and kept a constant temperature of 25 °C, and the titration needle was filled with 80 μl oligosaccharide or alginate ligand. Titrations were completed after 19 injections (each 3 μl) at an interval of 150 s. The data were analyzed by using the one-site binding model in the MicroCal PEAQ-ITC Analysis software. The fitted data yielded the dissociation constant (Kd), the number of binding sites on the protein (n), and the enthalpy of binding (ΔH). Other thermodynamic parameters can be calculated by using the standard thermodynamic equation ΔG = −RTln Ka = ΔH-TΔS. Titrations were carried out in triplicate for most ligands, and the errors are the SD of the mean of these replicates.

TM6-N4 [2] = target: T1, TM6-N4 (Defluviitalea phaphyphila, UniProt A0A4Y5UXE1); experiment: Isothermal titration calorimetry (MicroCal PEAQ-ITC) of 20 uM TM6-N4 with 200 uM oligoalginate in 20 mM Tris-HCl pH 7.0 without NaCl at 25 °C, one-site binding model, triplicate for most ligands.; details: SD, n = 3
T1 construct: gene Dp0100; TM6-N4 truncation of Dp0100 (187 amino acids, within TM6 segment 1020-1446, without CBM35), His tag, produced in E. coli BL21 (DE3); monomer, Ca2+ in crystal structure
Protocol: as §1, §2, §3

| Compound | ΔH (TM6-N4 [1]) [kcal/mol] | TΔS (TM6-N4 [1]) [kcal/mol] | ΔG (binding free energy change) (TM6-N4 [1]) | Kd (TM6-N4 [2]) [nM] |
| --- | --- | --- | --- | --- |
| O=C(O)[C@@H]1O[C@@H](O[C@H]2[C@H](O)[C@H](O)[C@H](O[C@H]3[C@H](O)[C@H](O)C(O)O[C@H]3C(=O)O)O[C@H]2C(=O)O)[C@@H](O)[C@@H](O)[C@@H]1O (some centres unmarked) [G3] | -15.1 ± 3.3 | -7.6 | -7.5 kcal/mol and -7.5 ± 0.1 kcal/mol |  |
| O=C(O)[C@H]1O[C@@H](O[C@H]2[C@H](O)[C@H](O)[C@H](O[C@H]3[C@H](O)[C@H](O)[C@H](O[C@H]4[C@H](O)[C@H](O)[C@H](O[C@H]5[C@H](O)[C@H](O)[C@H](O[C@H]6[C@H](O)[C@H](O)[C@H](O[C@H]7[C@H](O)[C@H](O)C(O)O[C@@H]7C(=O)O)O[C@@H]6C(=O)O)O[C@@H]5C(=O)O)O[C@@H]4C(=O)O)O[C@@H]3C(=O)O)O[C@@H]2C(=O)O)[C@@H](O)[C@@H](O)[C@@H]1O (stereo partly drawn) [M7, beta-D-mannuronate heptasaccharide (heptamannuronate)] |  |  |  | 200 ± 100 |
| O=C(O)[C@@H]1O[C@@H](O[C@H]2[C@H](O)[C@H](O)[C@H](O[C@H]3[C@H](O)[C@H](O)[C@H](O[C@H]4[C@H](O)[C@H](O)C(O)O[C@H]4C(=O)O)O[C@H]3C(=O)O)O[C@H]2C(=O)O)[C@@H](O)[C@@H](O)[C@@H]1O (some centres unmarked) [G4] | -7.3 ± 0.2 | 1.1 | -8.4 kcal/mol and -8.4 ± 0.1 kcal/mol |  |
| O=C(O)[C@@H]1O[C@@H](O[C@H]2[C@H](O)[C@H](O)[C@H](O[C@H]3[C@H](O)[C@H](O)C(O)O[C@H]3C(=O)O)O[C@H]2C(=O)O)[C@@H](O)[C@@H](O)[C@@H]1O (stereo partly drawn) [G3, alpha-L-guluronate trisaccharide (triguluronate)] |  |  |  | 3100 ± 100 |
| O=C(O)[C@H]1O[C@@H](O[C@H]2[C@H](O)[C@H](O)[C@H](O[C@H]3[C@H](O)[C@H](O)[C@H](O[C@H]4[C@H](O)[C@H](O)[C@H](O[C@H]5[C@H](O)[C@H](O)[C@H](O[C@H]6[C@H](O)[C@H](O)[C@H](O[C@H]7[C@H](O)[C@H](O)C(O)O[C@@H]7C(=O)O)O[C@@H]6C(=O)O)O[C@@H]5C(=O)O)O[C@@H]4C(=O)O)O[C@@H]3C(=O)O)O[C@@H]2C(=O)O)[C@@H](O)[C@@H](O)[C@@H]1O (some centres unmarked) [M7] | -4.2 ± 0.8 | 5.2 | -9.3 kcal/mol and -9.3 ± 0.1 kcal/mol |  |
| O=C(O)[C@@H]1O[C@@H](O[C@H]2[C@H](O)[C@H](O)[C@H](O[C@H]3[C@H](O)[C@H](O)[C@H](O[C@H]4[C@H](O)[C@H](O)[C@H](O[C@H]5[C@H](O)[C@H](O)C(O)O[C@H]5C(=O)O)O[C@H]4C(=O)O)O[C@H]3C(=O)O)O[C@H]2C(=O)O)[C@@H](O)[C@@H](O)[C@@H]1O (some centres unmarked) [G5] | -12.3 ± 0.4 | -3.6 | -8.6 kcal/mol and -8.6 ± 0.1 kcal/mol |  |
| O=C(O)[C@@H]1O[C@@H](O[C@H]2[C@H](O)[C@H](O)[C@H](O[C@H]3[C@H](O)[C@H](O)[C@H](O[C@H]4[C@H](O)[C@H](O)C(O)O[C@H]4C(=O)O)O[C@H]3C(=O)O)O[C@H]2C(=O)O)[C@@H](O)[C@@H](O)[C@@H]1O (stereo partly drawn) [G4, alpha-L-guluronate tetrasaccharide (tetraguluronate)] |  |  |  | 600 ± 100 |
| O=C(O)[C@H]1O[C@@H](O[C@H]2[C@H](O)[C@H](O)[C@H](O[C@H]3[C@H](O)[C@H](O)[C@H](O[C@H]4[C@H](O)[C@H](O)[C@H](O[C@H]5[C@H](O)[C@H](O)[C@H](O[C@H]6[C@H](O)[C@H](O)C(O)O[C@@H]6C(=O)O)O[C@@H]5C(=O)O)O[C@@H]4C(=O)O)O[C@@H]3C(=O)O)O[C@@H]2C(=O)O)[C@@H](O)[C@@H](O)[C@@H]1O (some centres unmarked) [M6] | -3.5 ± 0.3 | 6.4 | -9.9 kcal/mol and -9.9 ± 0.1 kcal/mol |  |
| O=C(O)[C@@H]1O[C@@H](O[C@H]2[C@H](O)[C@H](O)[C@H](O[C@H]3[C@H](O)[C@H](O)[C@H](O[C@H]4[C@H](O)[C@H](O)[C@H](O[C@H]5[C@H](O)[C@H](O)[C@H](O[C@H]6[C@H](O)[C@H](O)[C@H](O[C@H]7[C@H](O)[C@H](O)C(O)O[C@H]7C(=O)O)O[C@H]6C(=O)O)O[C@H]5C(=O)O)O[C@H]4C(=O)O)O[C@H]3C(=O)O)O[C@H]2C(=O)O)[C@@H](O)[C@@H](O)[C@@H]1O (stereo partly drawn) [G7, alpha-L-guluronate heptasaccharide (heptaguluronate)] |  |  |  | 300 ± 70 |
| O=C(O)[C@@H]1O[C@@H](O[C@H]2[C@H](O)[C@H](O)[C@H](O[C@H]3[C@H](O)[C@H](O)[C@H](O[C@H]4[C@H](O)[C@H](O)[C@H](O[C@H]5[C@H](O)[C@H](O)[C@H](O[C@H]6[C@H](O)[C@H](O)C(O)O[C@H]6C(=O)O)O[C@H]5C(=O)O)O[C@H]4C(=O)O)O[C@H]3C(=O)O)O[C@H]2C(=O)O)[C@@H](O)[C@@H](O)[C@@H]1O (stereo partly drawn) [G6, alpha-L-guluronate hexasaccharide (hexaguluronate)] |  |  |  | 20 ± 20 |
| O=C(O)[C@@H]1O[C@@H](O[C@H]2[C@H](O)[C@H](O)[C@H](O[C@H]3[C@H](O)[C@H](O)[C@H](O[C@H]4[C@H](O)[C@H](O)[C@H](O[C@H]5[C@H](O)[C@H](O)[C@H](O[C@H]6[C@H](O)[C@H](O)C(O)O[C@H]6C(=O)O)O[C@H]5C(=O)O)O[C@H]4C(=O)O)O[C@H]3C(=O)O)O[C@H]2C(=O)O)[C@@H](O)[C@@H](O)[C@@H]1O (some centres unmarked) [G6] | -8.6 ± 0.4 | 1.9 | -10.5 kcal/mol and -10.5 ± 0.1 kcal/mol |  |
| O=C(O)[C@@H]1O[C@@H](O[C@H]2[C@H](O)[C@H](O)[C@H](O[C@H]3[C@H](O)[C@H](O)[C@H](O[C@H]4[C@H](O)[C@H](O)[C@H](O[C@H]5[C@H](O)[C@H](O)[C@H](O[C@H]6[C@H](O)[C@H](O)[C@H](O[C@H]7[C@H](O)[C@H](O)C(O)O[C@H]7C(=O)O)O[C@H]6C(=O)O)O[C@H]5C(=O)O)O[C@H]4C(=O)O)O[C@H]3C(=O)O)O[C@H]2C(=O)O)[C@@H](O)[C@@H](O)[C@@H]1O (some centres unmarked) [G7] | -14.2 ± 0.4 | -5.4 | -8.9 kcal/mol and -8.9 ± 0.1 kcal/mol |  |
| O=C(O)[C@@H]1O[C@@H](O[C@H]2[C@H](O)[C@H](O)[C@H](O[C@H]3[C@H](O)[C@H](O)[C@H](O[C@H]4[C@H](O)[C@H](O)[C@H](O[C@H]5[C@H](O)[C@H](O)C(O)O[C@H]5C(=O)O)O[C@H]4C(=O)O)O[C@H]3C(=O)O)O[C@H]2C(=O)O)[C@@H](O)[C@@H](O)[C@@H]1O (stereo partly drawn) [G5, alpha-L-guluronate pentasaccharide (pentaguluronate)] |  |  |  | 500 ± 100 |
| O=C(O)[C@H]1O[C@@H](O[C@H]2[C@H](O)[C@H](O)[C@H](O[C@H]3[C@H](O)[C@H](O)[C@H](O[C@H]4[C@H](O)[C@H](O)[C@H](O[C@H]5[C@H](O)[C@H](O)C(O)O[C@@H]5C(=O)O)O[C@@H]4C(=O)O)O[C@@H]3C(=O)O)O[C@@H]2C(=O)O)[C@@H](O)[C@@H](O)[C@@H]1O (some centres unmarked) [M5, mannuronate pentasaccharide] | -8.6 ± 1.2 | -0.6 | -8.1 kcal/mol and -8.1 ± 0.1 kcal/mol |  |
| O=C(O)[C@H]1O[C@@H](O[C@H]2[C@H](O)[C@H](O)[C@H](O[C@H]3[C@H](O)[C@H](O)[C@H](O[C@H]4[C@H](O)[C@H](O)[C@H](O[C@H]5[C@H](O)[C@H](O)[C@H](O[C@H]6[C@H](O)[C@H](O)C(O)O[C@@H]6C(=O)O)O[C@@H]5C(=O)O)O[C@@H]4C(=O)O)O[C@@H]3C(=O)O)O[C@@H]2C(=O)O)[C@@H](O)[C@@H](O)[C@@H]1O (stereo partly drawn) [M6, beta-D-mannuronate hexasaccharide (hexamannuronate)] |  |  |  | 60 ± 60 |
| O=C(O)[C@H]1O[C@@H](O[C@H]2[C@H](O)[C@H](O)[C@H](O[C@H]3[C@H](O)[C@H](O)[C@H](O[C@H]4[C@H](O)[C@H](O)[C@H](O[C@H]5[C@H](O)[C@H](O)C(O)O[C@@H]5C(=O)O)O[C@@H]4C(=O)O)O[C@@H]3C(=O)O)O[C@@H]2C(=O)O)[C@@H](O)[C@@H](O)[C@@H]1O (stereo partly drawn) [M5, mannuronate pentasaccharide (beta-D-mannuronate pentasaccharide)] |  |  |  | 1200 ± 600 |
